Test results taken from patent US20130065226A1, “METHOD OF DETERMINING DOSE AND ADMINISTRATION OF STATIN” (TOHOKU UNIVERSITY, priority 2011, published 2013).
Read-outs that look alike come from different tables or passages of the source.

Tests used:
[1] = tested on: SmgGDS; assay: SmgGDS expression in HUVEC after 24 h drug treatment (western blot); format: cell-based, human; conditions: 24 h treatment, atorvastatin 10 and 30 μM, pitavastatin 1 and 10 μM
[2] = tested on: SmgGDS; assay: Protein expression in HUVEC subcellular fractions: SmgGDS; format: cell-based, human; conditions: HUVEC cytoplasm fraction, 24 h; atorvastatin 10 μM, pitavastatin 1 μM
[3] = tested on: Racl; assay: Racl expression in control or SmgGDS siRNA-transfected HUVEC; format: cell-based, human; conditions: control siRNA-transfected HUVEC, statin 24 h
Method: (§1) An AngII-induced cardiovascular hypertrophy model in mice was produced according to Yagi et al.'s literature (Yagi, S. et al., Circ. Res. 102, 68-76 (2008)). Statins were administered to mice by gavage every day for 2 weeks. After 2 weeks of sustained AngII administration by means of osmotic pump, the present inventors observed the left ventricular function and measured the weight of the heart of each mouse by means of an ultrasound imaging system. […] After a 2 weeks washout period, the subjects were switched to take an alternative medicine for additional 2 weeks.
(§2) Multiple siRNAs duplexes specific to SmgGDS were purchased from Qiagen. A functional non-targeting siRNA that was bioinformatically designed by Qiagen was used as a control. Either 10 nM control siRNA or 10 nM siRNA that was specific to SmgGDS was transfected into HUVEC with HiPerFect transfection Reagent (Qiagen). After 72 hour post-transfection, the cells were analyzed by either Wester blot or ROS analysis.

[4] = tested on: AngII-induced production of ROS in HUVEC; assay: Reactive oxygen species analysis (DCF staining) in siRNA-transfected HUVEC; format: cell-based, human; conditions: atorvastatin 1 μM or pitavastatin 0.1 μM 24 h, then 1 μM AngII 3 h
Method: as §1, §2
The present inventors treated HUVEC with AngII (1μM, Wako) at 37° C. in 5% CO2 for 3 hours, washed them with PBS and stained them with 2,7-dichlorofluoroscein diacetate (H2DCF-DA) (5 μM, Cayman) at 37° C. for 30 minutes to visualize the ROS production as green fluorescence (488 nm) through a fluorescence microscope (BIOREVO, Keyence). The relative fluorescence intensity was measured by means of BZ-II analyzer (Keyence) software.

[5] = Body weight, blood pressure and plasma lipid profiles in AngII-infused mice; format: in vivo; conditions: ATOR 10 mpk, PRA 50 mpk; for Systolic blood pressure / HDL cholesterol / LDL-cholesterol / Total cholesterol / Triglyceride: 2 weeks; for Systolic blood pressure / Body weight: mean ± s.e.m.; for Body weight: gavage daily 2 weeks; for HDL cholesterol / LDL-cholesterol / Total cholesterol / Triglyceride: plasma
Method: as §1
The present inventors conducted all mouse experiments in accordance with experimental protocols that were approved by the Animal Care and Use Committee of the Tohoku University Graduate School of Medicine. The present inventors used an AngII-induced cardiovascular hypertrophy model (see Yagi, S . et al . , Circ. Res. 102. 68-76 (2008)) to assess the effect of SmgGDS deficiency on the pleiotropic effects of low-dose statins. The present inventors infused 2.0 mg kg^−1 day^−1 or saline for 2 weeks in 10-week-old male SmgGDS^+/+ littermate control mice and SmgGDS^+/− mice. The inventors dissolved AngII in sterile saline and infused it via osmotic mini-pumps (Alzet model 2002, Alze Corp.). The inventors anesthetized the animals with isofluorane. Then, the inventors prepared subcutaneous pockets in the isofluorane-anesthetized mice and placed the pumps into the subcutaneous pockets through a small incision in the back that was closed by suturing. Either statin or vehicle was administered to both the AngII-infused and saline-infused mouse by gavage every day for 2 weeks . All incision sites rapidly healed without any infection. Systolic blood pressure was measured by using a non-invasive tail-cuff system (MK-2000, Muromachi) 2 weeks after the pump implantation. Plasma lipids (triglycerides, total cholesterol, LDL-cholesterol and HDL-cholesterol) were analyzed with the high-performance liquid chromatography system of Skylight Biotech. Echocardiographic analysis was performed by using an ultrasound imaging system (Vevo 2100, VisualSonic Inc.). The mice were shaved and M-mode images of the left ventricle were recorded while the heart rate was kept at about 500 bpm.

[6] = Human study: plasma lipid profiles, glucose, insulin and HOMA-IR; format: in vivo; conditions: for HDL-cholesterol, Change (%) / LDL-cholesterol, Change (%) / MDA-LDL, Change (%) / RLP cholesterol, Change (%) / Total cholesterol, Change (%) / Triglyceride, Change (%) / HDL-cholesterol, After 2 weeks / LDL-cholesterol, After 2 weeks / MDA-LDL, After 2 weeks / RLP cholesterol, After 2 weeks / Triglyceride, After 2 weeks / Total cholesterol, After 2 weeks: healthy volunteers; for HDL-cholesterol, Change (%) / LDL-cholesterol, Change (%) / MDA-LDL, Change (%) / RLP cholesterol, Change (%) / Total cholesterol, Change (%) / Triglyceride, Change (%): 20 mg day^−1, after 2 weeks vs baseline; for HDL-cholesterol, After 2 weeks / LDL-cholesterol, After 2 weeks / MDA-LDL, After 2 weeks / RLP cholesterol, After 2 weeks / Triglyceride, After 2 weeks / Total cholesterol, After 2 weeks: fasting; for Total cholesterol, After 2 weeks: mean ± s.e.m., n = 20
Description: (§3) The exclusion criteria included abnormal liver or kidney dysfunction before and during the statin administration and treatment.

[7] = tested on: SmgGDS; assay: Human study: SmgGDS expression in circulating leukocytes (western blot); format: in vivo; conditions: for increase of SmgGDS in leukocytes, average of the 20 volunteers: 20 mg, 2 weeks, vs before administration
Description: as §3

[8] = tested on: Racl; conditions: normal and healthy volunteers, 20 mg day^−1 for 1 week; cited from earlier work
[9] = tested on: RhoA/Rho-kinase; conditions: normal and healthy volunteers, 20 mg day^−1 for 1 week; cited from earlier work
[10] = tested on: Racl; assay: Protein expression in HUVEC subcellular fractions: Racl (with or without proteasome inhibitor MG-132); conditions: HUVEC nucleus fraction, 24 h; atorvastatin 10 μM, pitavastatin 1 μM
[11] = Plasma concentration of statins in mice; format: in vivo; conditions: male, mouse, oral, 24 hours after last of 2-week gavage, atorvastatin 10 mg/kg/day, pravastatin 50 mg/kg/day, read-out: Plasma concentration of statin
Method: Furthermore, the present inventors administrated each statin by gavage for 2 weeks from the start of AngII administration ([…], 10 mg/kg/day or pravastatin, 50 mg/kg/day) to the each group of mouse. The present inventors measured plasma concentration of statins 24 hours after the last administration (Table 3).

[12] = control siRNA-transfected HUVEC

Compound	SmgGDS expression level in HUVEC [1]	cytoplasmic SmgGDS level [2]	AngII-induced production of ROS [4, 12]	Systolic blood pressure ([5]; AngII-infused SmgGDS+/+ mice)	Systolic blood pressure ([5]; AngII-infused SmgGDS+/− mice)	HDL cholesterol ([5]; AngII-infused SmgGDS+/+ mice)	LDL-cholesterol ([5]; AngII-infused SmgGDS+/+ mice)	Total cholesterol ([5]; AngII-infused SmgGDS+/+ mice)	Triglyceride ([5]; AngII-infused SmgGDS+/+ mice)	HDL cholesterol ([5]; AngII-infused SmgGDS+/− mice)	LDL-cholesterol ([5]; AngII-infused SmgGDS+/− mice)	Total cholesterol ([5]; AngII-infused SmgGDS+/− mice)	Triglyceride ([5]; AngII-infused SmgGDS+/− mice)	HDL-cholesterol, Change (%) [6]	LDL-cholesterol, Change (%) [6]	MDA-LDL, Change (%) [6]	RLP cholesterol, Change (%) [6]	Total cholesterol, Change (%) [6]	Triglyceride, Change (%) [6]	HDL-cholesterol, After 2 weeks ([6]; 20 mg day^−1 oral, 2 weeks)	also measured
Cn1cc(C2=C(c3ccc(Cl)cc3Cl)C(=O)NC2=O)c2ccccc21 [SB216763]	increased the SmgGDS expression level in a concentration-dependent manner	–	–	–	–	–	–	–	–	–	–	–	–	–	–	–	–	–	–	–	–
CC(C)c1c(C(=O)Nc2ccccc2)c(-c2ccccc2)c(-c2ccc(F)cc2)n1CC[C@@H](O)C[C@@H](O)CC(=O)O [atorvastatin]	increased SmgGDS expression in HUVEC in a concentration-dependent manner	increased the cytoplasmic SmgGDS level	decreased the AngII-induced production of ROS	146.7 ± 7.6 mmHg	140.4 ± 4.4 mmHg	76.3 ± 6.8 mg/dL	13.7 ± 1.6 mg/dL	98.3 ± 7.7 mg/dL	67.0 ± 11.0 mg/dL	81.9 ± 4.8 mg/dL	13.6 ± 1.8 mg/dL	102.3 ± 6.9 mg/dL	81.4 ± 20.1 mg/dL	0%	−46%	−38%	−35%	−30%	−33%	60 ± 2.7 mg/dL	Racl expression level in whole cells [3]: decreased Racl expression level in whole cells; Body weight ([5]; AngII-infused SmgGDS+/+ mice): 27.5 ± 1.1 g; Body weight ([5]; AngII-infused SmgGDS+/− mice): 26.9 ± 0.5 g; LDL-cholesterol, After 2 weeks ([6]; 20 mg day^−1 oral, 2 weeks): 64 ± 3.4 mg/dL; MDA-LDL, After 2 weeks ([6]; 20 mg day^−1 oral, 2 weeks): 73 ± 4.5 U l^−1; RLP cholesterol, After 2 weeks ([6]; 20 mg day^−1 oral, 2 weeks): 2.6 ± 0.1 mg/dL; Triglyceride, After 2 weeks ([6]; 20 mg day^−1 oral, 2 weeks): 73 ± 6.5 mg/dL; Total cholesterol, After 2 weeks ([6]; 20 mg day^−1 oral, 2 weeks): 138 ± 3.8 mg/dL; concentration level of total cholesterol and of LDL-cholesterol in blood ([6]; normal healthy adult volunteers, 20 mg day^−1 oral, 2 weeks): reduced the concentration level of total cholesterol and that of LDL-cholesterol in blood; SmgGDS expression in leukocytes in circulating blood ([7]; healthy volunteers, 20 mg day^−1, 2 weeks, vs pre-administration level, n=20): significantly increased; increase of SmgGDS in leukocytes, average of the 20 volunteers ([7]; healthy volunteers): about 1.5 times; increase in SmgGDS ([7]; the 4 volunteers without increase at 10 mg pravastatin, after switching from pravastatin to atorvastatin): 3 volunteers out of the above 4 volunteers showed an increase of SmgGDS; Racl activity in circulating leucocytes [8]: significantly inhibit Racl activity; RhoA/Rho-kinase activity in circulating leucocytes [9]: without suppressing the RhoA/Rho-kinase activity
O=C(O)C[C@H](O)C[C@H](O)/C=C/c1c(C2CC2)nc2ccccc2c1-c1ccc(F)cc1 [pitavastatin]	increased SmgGDS expression in HUVEC in a concentration-dependent manner	increased the cytoplasmic SmgGDS level	The same results were also obtained	–	–	–	–	–	–	–	–	–	–	–	–	–	–	–	–	–	AngII-induced production of ROS ([4]; SmgGDS siRNA-transfected HUVEC): The same results were also obtained; intra-nuclear Racl level [10]: decreased the intra-nuclear Racl level
CC[C@H](C)C(=O)O[C@H]1C[C@H](O)C=C2C=C[C@H](C)[C@H](CC[C@@H](O)C[C@@H](O)CC(=O)O)[C@H]21 [pravastatin]	–	–	–	141.0 ± 7.3 mmHg	146.7 ± 6.6 mmHg	88.0 ± 4.5 mg/dL	16.1 ± 2.3 mg/dL	111.2 ± 6.8 mg/dL	47.3 ± 10.9 mg/dL	94.0 ± 4.1 mg/dL	16.1 ± 1.6 mg/dL	116.7 ± 5.7 mg/dL	56.6 ± 7.3 mg/dL	5%	−24%	−25%	−22%	−14%	−16%	61 ± 2.8 mg/dL	concentration at 24 h ([11]; AngII-infused SmgGDS+/+ mice): 0.43 ± 0.08 ng/mL; concentration at 24 h ([11]; AngII-infused SmgGDS+/− mice): 0.64 ± 0.24 ng/mL; LDL-cholesterol, After 2 weeks ([6]; 20 mg day^−1 oral, 2 weeks): 88 ± 4.0 mg/dL; MDA-LDL, After 2 weeks ([6]; 20 mg day^−1 oral, 2 weeks): 85 ± 6.7 U l^−1; RLP cholesterol, After 2 weeks ([6]; 20 mg day^−1 oral, 2 weeks): 3.2 ± 0.3 mg/dL; Triglyceride, After 2 weeks ([6]; 20 mg day^−1 oral, 2 weeks): 87 ± 9.1 mg/dL; Total cholesterol, After 2 weeks ([6]; 20 mg day^−1 oral, 2 weeks): 165 ± 4.5 mg/dL; increase of SmgGDS in leukocytes, average of the 20 volunteers ([7]; healthy volunteers): about 1.4 times
